Experimental data published in patent US8431596B2 (Cancer Research Technology Limited, priority 2007, dated 2013).

Target: T1, AXL (human catalytic domain) (Homo sapiens, UniProt P30530)
T1 construct: purchased Upstate Ltd. 14-512
T1 sequence (P30530 473-894): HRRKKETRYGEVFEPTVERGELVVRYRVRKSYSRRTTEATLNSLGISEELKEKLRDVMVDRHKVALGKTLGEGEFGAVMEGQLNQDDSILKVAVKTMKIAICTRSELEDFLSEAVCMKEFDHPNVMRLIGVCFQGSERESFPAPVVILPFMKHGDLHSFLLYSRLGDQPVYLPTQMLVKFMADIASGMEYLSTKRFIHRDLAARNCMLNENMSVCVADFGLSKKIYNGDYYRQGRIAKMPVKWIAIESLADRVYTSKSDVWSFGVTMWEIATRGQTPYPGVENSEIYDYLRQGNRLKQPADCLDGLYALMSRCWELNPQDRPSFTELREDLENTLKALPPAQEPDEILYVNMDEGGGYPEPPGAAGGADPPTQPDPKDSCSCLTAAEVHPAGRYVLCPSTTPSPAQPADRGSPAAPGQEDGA
Experiment: AXL (human catalytic domain) Enzyme Activity Assay (IMAP fluorescence polarisation)
Format: biochemical
Outline: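 IMAP FP readout (Ex485/Em535, after overnight binding) measured inhibition of the human AXL catalytic domain (aa473-894, 15 nM final) acting on 100 nM 5FAM-CSK-tide at 150 μM ATP, equal to KM. Reactions ran 60 min at room temperature in pH 7.0 HEPES buffer; IC50 from 10-point curves.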

[1] = first data set, recombinant AXL isoform 1 aa473-894, 150 μM ATP
[2] = further data set (WW-001 through WW-169, XX-001 through XX-469, YY-001 through YY-016, ZZ-001 through ZZ-003), 150 μM ATP

Compound | IC50 [1] [nM] | IC50 [2] [nM]
C#CCOc1ccc(-c2cccc3nc(NC(=O)C4CC4)nn23)cc1 [WW-122] | 1000 to 10000 | 1000 to 10000
O=C(Nc1nc2cccc(-c3ccccc3F)n2n1)C1CC1 [WW-025] | 1000 to 10000 | 1000 to 10000
CC(c1ccc(-c2cccc3nc(Nc4ccc(OCCN5CCCC5)cc4)nn23)cc1)N(C)C (stereo not shown) [XX-248] |  | 100 to 1000
COc1cc(Nc2cccc3nc(NC(=O)C4CC4)nn23)cc(OC)c1OC [WW-161] | 1000 to 10000 | 1000 to 10000
CC(Oc1ccc(Nc2nc3cccc(-c4ccc5c(c4)OCCO5)n3n2)cc1)C(N)=O (stereo not shown) [XX-072] | < 1000 | 100 to 1000
FC(F)(F)Oc1ccc(-c2cccc3nc(Nc4ccc(OCCN5CCCC5)cc4)nn23)cc1 [XX-244] |  | 100 to 1000
c1cc(OCc2ccncc2)cc(-c2cccc3nc(Nc4ccc(OCCN5CCCC5)cc4)nn23)c1 [XX-332] |  | 100 to 1000
CCN(CC)CCOc1cccc(Nc2nc3cccc(-c4ccc5c(c4)OCCO5)n3n2)c1 [XX-076] | < 1000 | ≤ 100
O=C(Cn1cc(-c2cccc3nc(Nc4ccc(OCCN5CCCC5)cc4)nn23)cn1)NCc1ccccc1 [XX-433] |  | 100 to 1000
CS(=O)(=O)c1ccc(-c2cccc3nc(Nc4ccc(OCCN5CCCC5)cc4)nn23)cc1 [XX-215, [5-(4-Methanesulfonyl-phenyl)-[1,2,4]triazolo[1,5-a]pyridin-2-yl]-[4-(2-pyrrolidin-1-yl-ethoxy)-phenyl]-amine] |  | 100 to 1000
O=C(Nc1nc2cccc(NC3CCCC3)n2n1)C1CC1 [WW-078] | 1000 to 10000 | 1000 to 10000
O=C(Nc1nc2cccc(-c3ccc4occc4c3)n2n1)C1CC1 [WW-133] | < 1000 | 100 to 1000
COc1ccc(-c2cccc3nc(Nc4ccc(OCCN5CCCCC5)cc4)nn23)cc1 [XX-019] | < 1000 | ≤ 100
Cc1nnc(SCCn2cc(-c3cccc4nc(Nc5ccc(OCCN6CCCC6)cc5)nn34)cn2)s1 [XX-430] |  | 100 to 1000
O=S(=O)(CCC(F)(F)F)n1cc(-c2cccc3nc(Nc4ccc(OCCN5CCCC5)cc4)nn23)cn1 [XX-382] |  | ≤ 100
Fc1ccc(CNc2cccc(-c3cccc4nc(Nc5ccc(OCCN6CCCC6)cc5)nn34)c2)nc1 [XX-443] |  | 100 to 1000
Cc1ccc(CNc2ccc(-c3cccc4nc(Nc5ccc(OCCN6CCCC6)cc5)nn34)cc2)cc1 [XX-267] |  | 100 to 1000
c1cc(-c2ccc3c(c2)OCCO3)n2nc(Nc3ccc(OCCN4CCCC4)cc3)nc2c1 [XX-018] | < 1000 | 100 to 1000
CN(C)CCCc1ccc(Nc2nc3cccc(-c4ccc5c(c4)OCCO5)n3n2)cc1 [XX-137] |  | 100 to 1000
c1cc(-c2cnn(CCSc3nccs3)c2)n2nc(Nc3ccc(OCCN4CCCC4)cc3)nc2c1 [XX-425] |  | 100 to 1000
CCC(=O)Nc1nc2cccc(-c3ccc(OC)cc3)n2n1 [WW-040] | 1000 to 10000 | 1000 to 10000
Cn1cnnc1SCCn1cc(-c2cccc3nc(Nc4ccc(OCCN5CCCC5)cc4)nn23)cn1 [XX-429] |  | 100 to 1000
CC(C)(C)CNc1cccc2nc(NC(=O)C3CC3)nn12 [WW-080] | 1000 to 10000 | 1000 to 10000
CN(C)c1ccc(-c2cccc3nc(NC(=O)C4CC4)nn23)cc1 [WW-069] | < 1000 | 100 to 1000
Cn1nc(COc2cccc(-c3cccc4nc(Nc5ccc(OCCN6CCCC6)cc5)nn34)c2)c2ccccc21 [XX-407] |  | 100 to 1000
Fc1cccc(Cn2cc(-c3cccc4nc(Nc5ccc(OCCN6CCCC6)cc5)nn34)cn2)c1 [XX-367] |  | 100 to 1000
O=S(=O)(Cc1cccc(C(F)(F)F)c1)n1cc(-c2cccc3nc(Nc4ccc(OCCN5CCCC5)cc4)nn23)cn1 [XX-287] |  | 100 to 1000
Cc1ccc(-c2nccc3nc(Nc4ccc(OCCN5CCCC5)cc4)nn23)cc1F [YY-014] |  | ≤ 100
O=C(Nc1cccc(-c2cccc3nc(Nc4ccc(OCCN5CCCC5)cc4)nn23)c1)c1ccccc1 [XX-179] |  | 100 to 1000
COc1cccc(-c2cccc3nc(NC(=O)C4CC4)nn23)c1 [WW-024] | 1000 to 10000 | 1000 to 10000
